For assay [1], the system named is Alternaria solani. Nature of the assay: microbe, parasite or virus in culture. The assay is classed as cell-based. An excerpt:
(§1) A synergistic effect exists whenever the action of an active ingredient combination is greater than the sum of the actions of the individual components. The action to be expected E for a given active ingredient combination obeys the so-called COLBY formula and can be calculated as follows (COLBY, S.R. “Calculating synergistic and antagonistic responses of herbicide combination”, Weeds, Vol. 15, pages 20-22; 1967): • ppm = milligrams of active ingredient (= a.i.) per liter of spray mixture, • X = % action by active ingredient (A) using p ppm of active ingredient, • Y = % action by active ingredient (B) using q ppm of active ingredient. • According to COLBY, the expected (additive) action of active ingredients (A)+(B) using p+q ppm of active ingredient is • [formula]
The compositions according to the invention are tested for their biological (fungicidal) activity as dimethylsulfoxide (DMSO) solutions using one or more of the following protocols (Examples 1-1 and 1-2). A standard description of the liquid culture tests is provided in Example 1.
Mycelia fragments or conidia suspensions of a fungus, prepared either freshly from liquid cultures of the fungus or from cryogenic storage, are directly mixed into nutrient broth. DMSO solutions of the test compound (max. 10 mg/mL) is diluted with 0.025% Tween20 by factor 50 and 10 µL of this solution is pipetted into a microtiter plate (96-well format). The nutrient broth containing the fungal spores/mycelia fragments is then added to give an end concentration of the tested compound. The test plates are incubated in the dark at 24° C. and 96% relative humidity (rh). […]
Conidia of the fungus from cryogenic storage were directly mixed into nutrient broth (PDB potato dextrose broth). After placing a DMSO solution of the test compositions into a microtiter plate (96-well format) the nutrient broth containing the fungal spores was added.

The subject of assay [2] is Botrytis cinerea. Nature of the assay: microbe, parasite or virus in culture. The class given is cell-based. The conditions noted are these: 72 hours.
Source text: as §1
A standard description of the liquid culture tests is provided in Example 1.
Mycelia fragments or conidia suspensions of a fungus, prepared either freshly from liquid cultures of the fungus or from cryogenic storage, are directly mixed into nutrient broth. DMSO solutions of the test compound (max. 10 mg/mL) is diluted with 0.025% Tween20 by factor 50 and 10 µL of this solution is pipetted into a microtiter plate (96-well format). […] The test plates are incubated in the dark at 24° C. and 96% relative humidity (rh). The inhibition of fungal growth is determined photometrically and visually after 3 - 7 days, depending on the pathosystem, and percent antifungal activity relative to the untreated check is calculated.
Conidia of the fungus from cryogenic storage were directly mixed into nutrient broth (PDB potato dextrose broth). After placing a DMSO solution of the test compositions into a microtiter plate (96-well format), the nutrient broth containing the fungal spores was added.

Numbered stars: 1 amine (or outer) side, 2 acyl side, 3 side chain; on linkers, the order of the positions; unused ones are H or OH. Square brackets hold non-standard residues; d marks the D form. Peptide text beside a SMILES is read from it. ξ: configuration not given here. ξNMeVal(3-OH) = CNC(C(=O)O)C(C)(C)O; NMeF = CN[CH](Cc1ccccc1)C(=O)O; X1 = CCC(C)C(O[*:1])C(=O)[*:2]; NMeV = CN[CH](C(=O)O)C(C)C

Regarding `CCC(C)C1NC(=O)C2CCCN2C(=O)C(Cc2ccccc2)N(C)C(=O)C(Cc2ccccc2)NC(=O)C(C(C)C)N(C)C(=O)C(C(C)CC)OC(=O)C(C(C)(C)O)N(C)C(=O)C(CC(C)C)NC(=O)C(C(C)C)N(C)C1=O` (stereo not drawn) [Aureobasidin A] (cyclo([ξNMeVal(3-OH)][X1][NMeV]F[NMeF]PI[NMeV]L); configuration not given here), the “(A) inhibition” value in assay [1] (Aureobasidin A 0.0001 ppm alone, growth determined photometrically after 48 hours) was determined as 0%; in assay [1] (Aureobasidin A 0.0002 ppm alone, 48 hours), 11%; in assay [1] (Aureobasidin A 0.0006 ppm alone, 48 hours), 0%; in assay [1] (Aureobasidin A 0.0012 ppm alone, 48 hours), 0%; in assay [1] (Aureobasidin A 0.0025 ppm alone, 48 hours) it was 0%; in assay [1] (Aureobasidin A 0.0050 ppm alone, 48 hours) it was 0%. Besides, the “(A) inhibition” value in assay [1] (Aureobasidin A 0.04 ppm alone (fenhexamid table), 48 hours) worked out at 40%; in assay [2] (Aureobasidin A 0.0025 ppm alone (mefentrifluconazole table)), 8%; in assay [2] (Aureobasidin A 0.0050 ppm alone (mefentrifluconazole table)) it was 7%; in assay [2] (Aureobasidin A 0.01 ppm alone (imazalil table)) it was 27%; in assay [2] (Aureobasidin A 0.02 ppm alone (fenhexamid table)) it was 53%; in assay [2] (Aureobasidin A 0.02 ppm alone (imazalil table)), 46%. In addition, the “(A) inhibition” value in assay [2] (Aureobasidin A 0.0200 ppm alone (mefentrifluconazole table)) is 22%.
Broadly, the inhibition is how much of the control response was suppressed. Turning to `CC1COC(Cn2cncn2)(c2ccc(Oc3ccc(Cl)cc3)cc2Cl)O1` (stereo not drawn) [Difenoconazole, difenoconazole, reference compound], the inhibition at 0.0156 ppm in assay [1] (Alternaria solani, Difenoconazole 0.0156 ppm alone, 48 hours, read-out: (B) inhibition) worked out at 30%. The inhibition at 0.0313 ppm in assay [1] (Alternaria solani, Difenoconazole 0.0313 ppm alone, 48 hours, read-out: (B) inhibition) came to 43%. Besides, the inhibition at 0.0625 ppm in assay [1] (Alternaria solani, Difenoconazole 0.0625 ppm alone, 48 hours, read-out: (B) inhibition) is 65%.
Consider `CC1(C(=O)Nc2ccc(O)c(Cl)c2Cl)CCCCC1` [Fenhexamid, fenhexamid, reference compound], for which, in assay [1] (Alternaria solani, Fenhexamid 0.10 ppm alone, 48 hours, read-out: (B) inhibition), the inhibition at 0.1 ppm stood at 0%. Moreover, the inhibition at 0.0125 ppm in assay [2] (Botrytis cinerea, Fenhexamid 0.0125 ppm alone, read-out: (B) inhibition) is 2%.
On to `C=CCOC(Cn1ccnc1)c1ccc(Cl)cc1Cl` (stereo not drawn) [Imazalil, imazalil, reference compound], for which the inhibition at 0.0625 ppm in assay [2] (Botrytis cinerea, Imazalil 0.0625 ppm alone, read-out: (B) inhibition) amounted to 5%. The inhibition at 0.125 ppm in assay [2] (Botrytis cinerea, Imazalil 0.1250 ppm alone, read-out: (B) inhibition) was 22%.
With `CC(O)(Cn1cncn1)c1ccc(Oc2ccc(Cl)cc2)cc1C(F)(F)F` (stereo not drawn) [Mefentrifluconazole, mefentrifluconazole, reference compound], the “(B) inhibition” value in assay [2] (Mefentrifluconazole 0.0250 ppm alone) turned out to be 27%.

The values are drawn from patent publication US20230240293A1, “FUNGICIDAL COMPOSITIONS” (SYNGENTA CROP PROTECTION AG, priority 2020, published 2023).
